Assay results published in PubChem BioAssay AID1117319 (Southern Research Institute, 2015).
Values joined by “and” are separate entries in the source; they are usually repeats but may differ in a detail not shown here. Equal entries are not always repeated. Results filed as inconclusive are left out.

These molecules were tested against Virion infectivity factor (Human immunodeficiency virus type 1 group M subtype B (isolate BH10)) + Virion infectivity factor (Human immunodeficiency virus type 1 group M subtype B (isolate BRU/LAI)) + Virion infectivity factor (Human immunodeficiency virus type 1 group M subtype B (isolate PCV12)) + Virion infectivity factor (Human immunodeficiency virus type 1 group M subtype B (isolate HXB2)) + DNA dC->dU-editing enzyme APOBEC-3G (Homo sapiens) (UniProt P69720+P69721+P69722+P69723+Q9HC16) (assay: inhibitors of Vif binding to APOBEC3G peptide, primary screen, biochemical, TR-FRET, GST-Vif 1-94, biotin-A3G peptide, dose response retest (AID 1117319);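 further: Vif residues 1-94 fused to GST binding biotinylated APOBEC3G peptide 110-148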).
Molecule `O=[N+]([O-])c1ccc(O)c2ncccc12` has an IC50 of 46.5 µM. `CCOc1ccccc1C(=O)NCC(=O)OCC(=O)NCCc1ccc(S(N)(=O)=O)cc1` showed an IC50 of 75.8 µM. `CC(C)c1ccc(/C=C/C(=O)N2CCc3ccccc3C2)cc1` showed an IC50 of 17.9 µM. `O=S(=O)(c1ccc2nc(-c3ccco3)c(-c3ccco3)nc2c1)N1CCOCC1` was tested, and the IC50 was 6.38 µM and 3.81 µM. Molecule `CCOc1cccc(=O)c2c(C)oc(C)c12` has an IC50 of 6.16 µM. Work on `COC(=O)/C(=N/Nc1ccccc1C)N1CCCc2ccccc21` yielded an IC50 of 1.9 µM. `O=C1NC(=O)N(Cc2ccccc2)C(=O)/C1=C\C=C\c1ccco1` showed an IC50 of 4 µM. Work on `CCCC(=Nc1ccc(N)cc1)C1=C(O)C(C(=O)OC)C(C)(C)CC1=O` (stereo unspecified) yielded an IC50 of 2.76 µM. `COc1cccc(-c2cn3nc4c(nc3n2)CCCC4)c1` gave an IC50 of 17.6 µM. In the case of `Nc1cccc2c(O)cc(S(=O)(=O)O)cc12`, the IC50 is reported as 2 µM. With `Cc1cc(O)c(C(C)C)cc1N=Cc1ccc([N+](=O)[O-])cc1` the IC50 was 19 µM. For `CCn1c(COc2ccc3c(c2)OCO3)nnc1SCC(=O)c1ccc(Cl)cc1`, the IC50 was 78.1 µM. With `COc1cccc(C(C#N)N2CCCCC2)c1O` (stereo unspecified) the IC50 was 79.2 µM. Work on `O=C1NC(=Nc2ccc(O)cc2)S/C1=C\C=C\c1ccco1` yielded an IC50 of 5.1 µM. `CC(=C/c1ccco1)/C=N/NC(=O)Cc1cccn1C` showed an IC50 of 1.91 µM. `Cc1cc(/C=C2\C(=O)NC(=O)N(c3cccc(F)c3)C2=O)c(C)n1-c1cc(C(=O)O)cc(C(=O)O)c1` showed an IC50 of 10.2 µM. Molecule `O=C(O)c1ccc2c(c1)C1C=CCC1C(c1ccncc1)N2` (stereo unspecified) has an IC50 of 3.85 µM. `COc1ccc(/C=N/NC(=O)CNc2n[nH]c(=O)[nH]c2=O)cc1OC` was tested, and the IC50 was 42.6 µM. For `O=C(O)/C(=C/c1ccco1)NC(=O)c1ccccc1`, the IC50 was 19.4 µM. Work on `O=C(CCc1ccc(S(=O)(=O)NCCc2ccccc2)cc1)Nc1ccc2c(c1)OCO2` yielded an IC50 of 43.5 µM. `CNc1c(C(=O)O)ccc2c1C(=O)c1ccccc1C2=O` gave an IC50 of 25 µM. `Cc1nc2c(=O)[nH]c(=S)[nH]c2[nH]c1=O` gave an IC50 of 50.7 µM. For `CC(=O)Nc1ccc(S(=O)(=O)NCCSCc2ccco2)cc1`, the IC50 was 15.3 µM. `O=C1NC(=O)N(Cc2ccc(F)cc2)C(=O)/C1=C\C=C\c1ccco1` was tested, and the IC50 was 19.2 µM. In the case of `CCCc1cc(=O)oc2cc(C)c(CN3CCCC3)c(O)c12`, the IC50 is reported as 3.46 µM. With `COc1cc(C2Nc3cccc4cccc(c34)N2)cc(OC)c1O` the IC50 was less than 4.18 µM. For `CC(=O)N(\C=C/C=C/C=C1\Sc2ccccc2C1=O)c1ccccc1`, the IC50 was 5.47 µM. Work on `CC(C)CC(=O)Nc1nnc(-c2ccco2)s1` yielded an IC50 of 68.1 µM. `COc1ccc(-c2cc(-c3ccco3)[nH]c(=O)c2C#N)cc1` gave an IC50 of 25.3 µM. Work on `Brc1c(CSc2nnc(-c3ccco3)o2)nc2ccccn12` yielded an IC50 of 30.6 µM. `O=C(CSc1nnnn1-c1ccccc1)Nc1ncc2c(n1)CC(c1ccco1)CC2=O` (stereo unspecified) showed an IC50 of 12.6 µM. `COc1cc(C2C(C#N)=C(N)N(c3cccnc3)C3=C2C(=O)CCC3)ccc1O` (stereo unspecified) showed an IC50 of 13.6 µM. `O=C(O)CCCNc1cc(N2CCC3(CC2)OCCO3)c2noc3c2c1C(=O)c1ccccc1-3` gave an IC50 of 0.97 µM. For `COC(=O)c1ccccc1NC(=O)CCS(=O)(=O)c1ccc(Br)cc1`, the IC50 was 1.49 µM. For `C=CCN=c1scc(-c2ccco2)n1/N=C/c1ccc(O)c(O)c1O`, the IC50 was 1.38 µM. `O=C(O)CC(C(=O)O)N1C(=O)/C(=C/C=C/c2ccco2)SC1=S` (stereo unspecified) showed an IC50 of 0.96 µM. `O=c1oc(/C=C/c2ccco2)nc2sc3c(c12)CCC3` showed an IC50 of 15.5 µM. For `CCCCn1c(SCC(=O)NCc2ccco2)nc2ccc(N3CCOCC3)cc2c1=O`, the IC50 was 12.5 µM. For `O=C1/C(=C\c2ccco2)CCC/C1=C\c1ccco1`, the IC50 was 3.05 µM. Work on `COc1ccc(OC)c(S(=O)(=O)Nc2ccc(O)c3ccccc23)c1` yielded an IC50 of 8.62 µM. Molecule `CCOC(=O)CNc1ccc2c(c1)OCO2` has an IC50 of 2.46 µM. Molecule `COc1ccc(N2CCN(C(=O)c3c(-c4ccccc4)noc3C)CC2)cc1` has an IC50 of 31.1 µM. Work on `Cc1ccc(C)c2[nH]c(=O)c(CN(Cc3ccc4c(c3)OCO4)Cc3nnnn3Cc3ccco3)cc12` yielded an IC50 of 12.4 µM. Molecule `Cc1cc(/C=C2\SC(=S)NC2=O)c(C)n1-c1ccccc1` has an IC50 of 14.1 µM. In the case of `O=[N+]([O-])c1ccc(Cl)c(S(=O)(=O)Nc2cccc(S(=O)(=O)NC3=NCCC3)c2)c1`, the IC50 is reported as 5.64 µM. Work on `Cc1ccc(N(CN2C(=O)C3CC=CCC3C2=O)C(=O)c2ccco2)cc1Cl` (stereo unspecified) yielded an IC50 of 53.4 µM.
